63 compounds from a melting point compilation (Tetko et al.; mined from patent text by program, amines drawn as free bases though some values may be those of a salt) can be followed below.

A value given as a limit tells only on which side of the number the result lay.

A word on the melting point: it is the temperature of the solid-liquid transition. `CC(C)(C)c1ccc2c(C#N)ccc(C#N)c2c1` showed a melting point of 58 to 59 °C.

`O=C1Nc2ccccc2N(C(=O)Cc2ccccc2)c2cscc21` came in with a melting point of 165 to 168 °C.

`Cc1nc(NC(CO)C(C)C)c2c(n1)c(C)nn2C` (stereo not drawn): the melting point is 166 to 168 °C.

`COc1cc([N+](=O)[O-])c(CO)c(OC)c1OC` had a melting point of 69 to 70 °C.

`O=C(c1cc2ccc(N3CCOCC3)cc2o1)C12CC3CC(CC(C3)C1)C2` registered a melting point of 123 to 125 °C.

The compound `COc1ccc2c(c1)C=C(CN1CCC3(CC1)C(=O)NCN3c1ccccc1)CC2` came in with a melting point of 184 to 186 °C.

`COC(=O)CCCCCCn1[nH]c(=O)n(C)c1=O`: the melting point lay within 80 to 81 °C.

`CCOC(=O)COc1ccc(OCc2ccccc2)cc1C(Nc1ccc(C(=N)NC(=O)OC(C)(C)C)cc1)C(=O)OCC` (racemic) displayed a melting point of 258 °C.

On to `CC(C)(C)[Si](C)(C)OC1CCCc2cnc3cc(OCc4ccccc4[N+](=O)[O-])ccc3c21` (stereo not drawn), for which the melting point was in the range of 150 to 152 °C.

Compound `CCCOC1CC2(C)C(CCC3C2CCC2(C)C(C(=O)CSCCCO)CCC32)CC1O` (stereo not drawn) displayed a melting point of 133 to 136 °C.

Take `Cc1ccccc1-c1c(O)c2ccccc2[nH]c1=O`: the melting point is greater than 300 °C.

For the compound `CCOC(=O)CCCCCCn1c(=O)c(=O)[nH]c2cc(Br)ccc21`, the melting point was in the range of 187 to 190 °C.

As to `O=C(O)[C@@H](CCN1Cc2ccccc2C1=O)Oc1c(Br)cc(-c2c3ccccc3c(Br)c3sc4ccccc4c23)cc1Br`, the melting point lay in the range of 239 to 241 °C.

As for `Fc1cccc(F)c1-c1ncc(-c2ccc(-c3ccc(OC(F)(F)F)cc3)cc2)nn1`, the melting point lay in the range of 225 to 230 °C.

`CCCC12CCC3C4CCCC=C4CCC3C1CCC2=O` (stereo not drawn) displayed a melting point of 89 to 90 °C.

In turn, `O=C(CCl)Nc1ccccn1` showed a melting point of 114 to 117 °C.

`CCOC(=O)c1cc(O)c(C(=O)c2ccc(C)cc2)c([N+](=O)[O-])c1` returned a melting point of 145 to 147 °C.

Regarding `COc1ccc(S(=O)(=O)N(CCCN(C)C)c2ccc(Cl)cc2Cc2c(F)cccc2F)cc1OC`, the melting point was determined as 134 °C.

For the compound `CCOC(=O)C(=CNc1ncnc2ccc(NC(=O)CC(C)(C)C)cc12)C(=O)OCC`, the melting point was in the range of 133 to 135 °C.

`Cc1cc(C)c(Cn2cc(C(=O)C(=O)NC3=CC(=O)OC3)c3ccccc32)c(C)c1` displayed a melting point of 288 to 290 °C.

As to `O=C1c2ccccc2CN1CCN1CCC(c2noc3cc(F)ccc23)CC1`, the melting point lay in the range of 166 to 168 °C.

Compound `CCC1CN(c2cccc(C(C)C)c2)C(=O)C1c1cccc(Cl)c1` (stereo not drawn) came in with a melting point of 88.5 to 90 °C.

The compound `O=C(O)[C@H]1CC[C@H](Nc2ncc3ncnc(Nc4ccc(F)c(Cl)c4)c3n2)CC1` returned a melting point greater than 290 °C.

`CC(=O)Nc1ccc(C=O)cc1Cl` showed a melting point of 110 to 113 °C.

As to `N#Cc1cc(Cc2ccccc2)cc(-c2cccc([N+](=O)[O-])c2)c1O`, the melting point is 148 to 149 °C.

For `C=C[C@H](O)[C@@H](N)CC1CCCCC1`, the melting point lay within 59 to 61 °C.

In the case of `CCn1nc2c(N)nc3ccccc3c2c1CC1(F)CCN(C(C)=O)CC1`, the melting point was in the range of 228 to 230 °C.

As for `CSC(=S)C1(c2ccccn2)SCCCS1`, the melting point was found to be 91 °C.

`C[C@@H]1C(=O)N(C(=O)N2CCOCC2)Cc2ccccc2[C@@H]1C` (relative stereo): the melting point is 184 to 185 °C.

Turning to `COc1ncccc1Cc1cc2cccc(-c3cccc(C(=O)NCCO)c3)c2s1`, the melting point was 121 to 122 °C.

Regarding `CCCCCCc1ccc(-c2ncc(C#N)c(Cl)n2)cc1`, the melting point fell in the range of 80.3 to 80.5 °C.

As to `CCOC(=O)C(=CNCC1CCCO1)C(=O)c1ccc(Br)cc1Cl` (stereo not drawn), the melting point stood at 136 °C.

In turn, `COc1ccc(C(=O)C2=C(O)C(=O)N(c3nnc(C(C)C)s3)C2c2ccc(C(C)(C)C)cc2)cc1` (stereo not drawn) showed a melting point of 257 °C.

Regarding `CCCCCCCCCCCCCCCCSCC(CNS(=O)(=O)CCCCl)NC(=O)OC(C)(C)C` (stereo not drawn), the melting point lay in the range of 100 to 102 °C.

The compound `COC(=O)Cn1c(C)cc(Cc2ccc(F)cc2)c(NC(=O)OCc2ccccc2)c1=O` yielded a melting point of 236 °C.

Compound `Cc1ccc(C=CC(C#N)=NOS(C)(=O)=O)cc1` had a melting point of 134 to 135 °C.

Consider `COC(=O)COc1c(C)cc(SCc2ccc(-c3ccc(C(F)(F)F)cn3)cc2)c2c1CCO2`, for which the melting point lay in the range of 94 to 95 °C.

The compound `CCOC(=O)c1c(Cn2cnnc2)nc2sc(C)c(C)c2c1-c1ccc(OC)c(OC)c1` yielded a melting point of 187 to 188 °C.

As for `CCCCCCOc1ccc2c(ccc3nc(OCCCCCC)ccc32)n1`, the melting point came out at 91 °C.

Consider `COC(=O)C(C=CC(=O)O)=CNc1ccc(Cl)cc1`, for which the melting point was 160 to 161 °C.

As for `Cc1cc(-c2nc3cccnn3c2-c2ccnc(NC(=O)c3ccsc3)c2)ccc1F`, the melting point lay in the range of 217 to 218 °C.

The compound `Cc1ccccc1SCc1c(CCN(C)C)[nH]c2ccccc12` returned a melting point of 134 to 137 °C.

Compound `COc1nnc2n1C=Cc1ccccc1C2C` (stereo not drawn) had a melting point of 101 to 102 °C.

For `COc1cc(CCCC2SC(=O)NC2=O)ccc1OCc1nc(-c2ccccc2)sc1C` (stereo not drawn), the melting point lay within 149 to 150 °C.

In the case of `O=C(NCc1ccc(Cl)cc1)c1cc2c3c(cc(CN4CCOCC4)cn3c1=O)CCC2`, the melting point lay within 200 to 201 °C.

`C=CC(=O)OC(COc1ccc(C(=O)c2ccccc2)c(O)c1)COc1ccc(C(=O)c2ccccc2)c(O)c1` came in with a melting point of 98 to 100 °C.

Regarding `CCS(=O)(=O)Nc1ccc(F)c(N)c1`, the melting point lay in the range of 106 to 108 °C.

With `COc1cccc2oc(=O)c3c4c(ccc3c12)NC(C)(C)C=C4C`, the melting point lay within 247 to 248 °C.

`Cc1ccccc1-n1c(CF)nc2ccc(N)cc2c1=O`: the melting point lay in the range of 195 to 196 °C.

For the compound `Cc1cc(-c2ccc(S(C)(=O)=O)cc2)n(-c2ccc(-c3ccoc3)cc2)c1C`, the melting point was in the range of 215 to 219 °C.

In turn, `COc1cc(C(C)C)c2c(c1)S(=O)(=O)N(COc1cc(C(F)(F)F)nn1-c1ccc(Cl)cn1)C2=O` registered a melting point of 173 to 174 °C.

`O=S(=O)(Cl)c1ccc(-c2ccc(F)cc2)s1` yielded a melting point of 82 to 85 °C.

Consider `Cc1c(C(F)(F)F)noc1NS(=O)(=O)c1ccc(-c2ccccc2)cc1`, for which the melting point is 139 to 140 °C.

Turning to `O=C(O)c1ccc2c(c1)S(=O)(=O)c1ccccc1CC2`, the melting point lay in the range of 248 to 250 °C.

In turn, `CC(C)CNc1c([N+](=O)[O-])cnc2ccccc12` registered a melting point of 114 to 118 °C.

In turn, `N#Cc1ccc(C2NC(=O)NC2=O)c(N2CCCC2)c1` (stereo not drawn) had a melting point of 154 °C.

Take `COP(=S)(OC)Oc1nsc(C)c1C#N`: the melting point is 52 °C.

In the case of `CN(C)c1ccc2nc(-c3csc4ccccc34)[nH]c(=O)c2c1`, the melting point is greater than 300 °C.

As to `COc1cc(Nc2c(C#N)cnc3cc(Br)c(OC)cc23)c(Cl)cc1Cl`, the melting point is greater than 250 °C.

In turn, `CCCCOCCOc1ccc(-c2ccc(N3CC(C)C(C)C3)c(C=C(C)C(=O)O)c2)cc1` (stereo not drawn) came in with a melting point of 126 to 128 °C.

The compound `CCOC(=O)c1ccc(OCC2CN(c3cccnn3)CCO2)cc1` (stereo not drawn) registered a melting point of 110 °C.

`COc1ccc(Cc2ccc(CO)nc2)cc1` had a melting point of 55 to 58 °C.

On to `O=c1[nH]nc2ccc(S)nn12`, for which the melting point is greater than 300 °C.
